Laboratory results reported in US20240343726A1, “PYRROLOPYRIDINE-3- AND 4-CARBOXAMIDE COMPOSITIONS AND METHODS FOR CELLULAR PROLIFERATION” (The Rockefeller University, priority 2021, published 2024).
Read-outs that look alike come from different tables or passages of the source.

What was measured:
Yap = Yap nuclear translocation in supporting cells of cultured utricles (immunohistochemical analysis); type: cell-based, mice; conditions: 10 μM, 24 hr of treatment, control=0.6
[1] = test system: adult utricular supporting cells; assay: EdU proliferation assay in cultured adult utricles; type: cell-based, mice; conditions: 5 days of treatment, control=20
Description: was tested in vitro to explore its mechanism of action and its utility in regenerating hair cells of the ear. The effects of the compounds were tested on utricles isolated from mice eight to twelve weeks of age. Internal ears were dissected from mice euthanized with fluothane and placed into ice-cold Hank's balanced salt solution, and cultured as previously described by Gnedeva, K. & Hudspeth [Proc. Natl. Acad Sci. 112, 14066-14071 (2015)]. For proliferation assays, utricles were cultured with 10 μM 5-ethynyl-2′-deoxyuridine (EdU) that was detected with click chemistry.
After 5 days of treatment, the N-benzyl thiazole evoked robust re-entry into the cell cycle of adult utricular supporting cells, yielding hundreds of EdU+daughter supporting cells (control=20 EdU+ supporting cells; the N-benzyl thiazole-treated=250 EdU+supporting cells; p=0.021 by an unpaired, one-tailed 1-test, control n=2, TO1 n=3).

LATS1 kinase = LATS1 kinase (Homo sapiens (Human), UniProt O95835); assay: LATS1 Biochemical HTRF Assay
Sequence of LATS1 kinase (O95835 589-1130): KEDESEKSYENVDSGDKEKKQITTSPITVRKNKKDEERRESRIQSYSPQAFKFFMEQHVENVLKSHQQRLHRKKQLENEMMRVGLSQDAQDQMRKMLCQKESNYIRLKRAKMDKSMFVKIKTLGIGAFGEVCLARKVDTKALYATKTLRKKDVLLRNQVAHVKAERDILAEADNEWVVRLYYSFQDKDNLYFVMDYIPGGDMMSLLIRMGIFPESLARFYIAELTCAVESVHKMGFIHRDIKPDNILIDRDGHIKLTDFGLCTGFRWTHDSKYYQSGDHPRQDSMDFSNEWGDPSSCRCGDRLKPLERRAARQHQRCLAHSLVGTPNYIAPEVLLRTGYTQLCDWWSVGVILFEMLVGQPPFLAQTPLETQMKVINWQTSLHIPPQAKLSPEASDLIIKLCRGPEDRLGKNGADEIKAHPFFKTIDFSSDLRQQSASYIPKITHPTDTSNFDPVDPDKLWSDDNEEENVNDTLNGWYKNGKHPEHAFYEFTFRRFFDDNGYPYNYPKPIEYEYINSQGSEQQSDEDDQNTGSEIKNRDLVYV
Description: LATS1 Biochemical HTRF Assay
MgCl2 and [1 mM] DTT. 1× Enzymatic buffer diluted from 5× Enzymatic buffer*. Add 0.5 μL of 20× compound in 100% DMSO. […] MgCl2, [1 mM] DTIT and [5 mg/mL] BSA. 5×ERR prepared from 5× Enzymatic buffer with [25 mg/mL] BSA. Mix plate on plate shaker set at 1,350 rpm for 30 seconds, then centrifuge plate at 1,000 rpm for 1 minute. Incubate for 30 minutes at 25° C. on plate shaker set to 500 rpm. […] STK Substrate 1-biotin* then add 2 μL [10 mM] ATP. Mix plate on plate shaker set at 1,350 rpm for 30 seconds, then centrifuge plate at 1,000 rpm for 1 minute. Incubate for 40 minutes at 25° C. on plate shaker set to 500 rpm. […] Streptavidin-XL665 with 1×STK Antibody-Cryptate*. Mix plate on plate shaker set at 1,350 rpm for 30 seconds, then centrifuge plate at 1,000 rpm for 1 minute. Incubate for 60 minutes at 25° C. on plate shaker set to 500 rpm, covered from light.
*(Included in Cisbio KinEASE-STK Si HTRF Kit: 62ST1PEC)

phosphorylation of YAP = assay: pYAP HTRF Assay (HEK 293A Cells); type: cell-based; conditions: HEK293-A, inhibitory activity of phosphorylation of YAP, read-out: LATS1_ICKA_HEK293A IC50
Description: Use 3× dilution scheme in DMSO through column 10, lastly diluting further by 10× into column 11. Add 100% DMSO in serum-free and complete medium in columns 1 and 12 as a positive and negative control, respectively. To achieve a dilution of 1:500, use two 0.8 ml 96-well deep-well plates (ThermoFisher AB0765) pre-filled with the medium as intermediate (1:20) and final dilution plate (1:25). (Transfer row-wise) • Flick the cell plate carefully, three to four times or until all wells are clear of any residual liquid. Dispense 50 μL of the compound in medium into respective wells row-wise, incubate at 37° C. for 30 min • After a 30-minute incubation, flick the cell plate carefully, three to four times or until all wells are clear of any residual liquid. Dilute stock Lysis Buffer #4 (4×) in deionized water, complemented with blocking solution, the stock of which is 100×*. Add 75 μL 1× lysis buffer+blocking reagent mix into each well. Mix plate on a shaker for 30 min at room temperature • Dilute stock solution of total/phospho-YAP Eu cryptate & d2 antibody (each) in the ratio of 1:20 with detection buffer. Mix antibody solutions Eu3+ cryptate and d2 (each for total-Yap and phospho-YAP) in the ratio of 1:1*. Transfer 4 μL of the antibody mixture into two separate small-volume 384-well plates assigned for total-YAP and phospho-YAP. Give a short spin to the plates in a benchtop centrifuge set at 1000 rpm for 30 seconds • Row-wise, homogenize the lysate gently by pipetting it up and down, swirling the tip in the well to help scrape off any adherent cells (avoid bubble formation). Row-wise transfer 16 μL cell lysate into the low-volume 384-well plates with 4 μL total-YAP or phospho-YAP antibody reaction mix for a final volume of 20 μL. Spin down the plates in a benchtop centrifuge set at 1000 rpm for 30 seconds • Seal the plates using a vacuum sealer, incubate overnight at room temperature in the dark on a shaker; read the next day • Use a fluorescence emission read using compatible HTRF® reader—BioTek Synergy NEO. […] Included in Cisbio HTRF YAP total kit (#64YATPEH) & YAP phospho-S127 kit (#64YAPPEH).

[2] = 2 mM ATP, read-out: LATS1_HTRF_2 mM ATP IC50

Row | SMILES | IC50 (LATS1 kinase; [2]) [µM] | IC50 (phosphorylation of YAP) [µM] | Yap nuclear translocation, quantified as a ratio to the constitutively expressed protein Sall2 (Yap) | EdU+ supporting cells (re-entry into the cell cycle) [1] | IC50 (LATS1 kinase) [µM]
1 | O=C(/N=c1\sccn1Cc1ccccc1)c1c[nH]c2ncccc12 |  |  | 1.0 | 250 | 
2 | O=C(/N=C1\SCCN1c1ccc(O)cc1)c1c[nH]c2ncccc12 [Example 8] | 0.013 | 0.687 |  |  | 
3 | O=C(/N=C1\SCCN1C1CCCCC1)c1c[nH]c2ncccc12 [Example 11] | 0.0011 | 0.053 |  |  | 
4 | CC1(C)CS/C(=N\C(=O)c2c[nH]c3ncccc23)N1C1CCCCC1 [Example 12] |  | 0.037 |  |  | 0.0011
5 | CN(C)CC1CS/C(=N\C(=O)c2c[nH]c3ncccc23)N1c1ccccc1 (stereo not shown) [Example 14, (Z)—N-(4-((dimethylamino)methyl)-3-phenylthiazolidin-2-ylidene)-1H-pyrrolo[2,3-b]pyridine-3-carboxamide] | 0.0041 | 0.071 |  |  | 
6 | O=C(/N=C1\SCCN1c1ccccc1Cl)c1ccnc2[nH]ccc12 [Example 17] | 0.082 | 1.49 |  |  | 
7 | O=C(/N=C1\SCCCN1c1ccccc1Cl)c1ccnc2[nH]ccc12 [Example 27] | 0.2 | 5.56 |  |  | 
8 | O=C(/N=C1\SCCCN1C1CCCCC1)c1c[nH]c2ncccc12 [Example 30] | 0.0029 | 0.039 |  |  | 
9 | CNC(=O)C1CS/C(=N\C(=O)c2c[nH]c3ncccc23)N(c2ccccc2)C1 (stereo not shown) [Example 34, (Z)-2-((1H-pyrrolo[2,3-b]pyridine-3-carbonyl)imino)-N-methyl-3-phenyl-1,3-thiazinane-5-carboxamide] | 0.023 | 1.71 |  |  | 
10 | O=C(/N=c1\sccn1-c1ccccc1Cl)c1ccnc2[nH]ccc12 [Example 41] |  | 0.00475 |  |  | 
11 | CNC(=O)c1cs/c(=N\C(=O)c2ccnc3[nH]ccc23)n1-c1ccccc1Cl [Example 58] | 0.048 | 0.527 |  |  | 
12 | CN(C)Cc1cs/c(=N\C(=O)c2c[nH]c3ncccc23)n1Cc1ccccc1 [Example 65, (Z)—N-(3-benzyl-4-((dimethylamino)methyl)thiazol-2(3H)-ylidene)-1H-pyrrolo[2,3-b]pyridine-3-carboxamide] | 0.015 | 0.64 |  |  | 
13 | CN(C)Cc1cs/c(=N\C(=O)c2c[nH]c3ncccc23)n1-c1ccccc1Cl [Example 66, (Z)—N-(3-(2-chlorophenyl)-4-((dimethylamino)methyl)thiazol-2(3H)-ylidene)-1H-pyrrolo[2,3-b]pyridine-3-carboxamide] | 0.0013 | 0.327 |  |  | 
14 | O=C(/N=c1\scc(CN2CCOCC2)n1-c1ccccc1Cl)c1c[nH]c2ncccc12 [Example 67] | 0.0011 | 0.147 |  |  | 
15 | COCCN(C)Cc1cs/c(=N\C(=O)c2c[nH]c3ncccc23)n1-c1ccccc1Cl [Example 68] | 0.0028 | 0.27 |  |  | 
16 | CN(C)Cc1cs/c(=N\C(=O)c2c[nH]c3ncccc23)n1C1CCCCC1 [Example 69] | 0.0018 | 0.068 |  |  | 
17 | O=C(/N=C1\SCCN1c1ccccc1)n1ccc2ncccc21 [Example 84] |  | 2.29 |  |  | 
18 | O=C(/N=c1\sccn1-c1ccccc1Cl)n1ccc2ncccc21 [Example 85] |  | 31.6 |  |  | 

Second part, led by results:

Row | IC50 (LATS1 kinase; [2]) [µM] | IC50 (phosphorylation of YAP) [µM] | SMILES | Yap nuclear translocation, quantified as a ratio to the constitutively expressed protein Sall2 (Yap) | EdU+ supporting cells (re-entry into the cell cycle) [1] | IC50 (LATS1 kinase) [µM]
19 | 0.0112 | 0.0197 | O=C(/N=C1\SCCN1Cc1ccccc1)c1c[nH]c2ncccc12 [Example 1, (Z)—N-(3-benzylthiazolidin-2-ylidene)-1H-pyrrolo[2,3-b]pyridine-3-carboxamide] |  |  | 
20 | 0.000829 | 0.023 | O=C(/N=C1\SCCN1c1ccccc1)c1c[nH]c2ncccc12 [Example 2] |  |  | 
21 | 0.000297 | 0.00515 | O=C(/N=C1\SCCN1c1ccccc1Cl)c1c[nH]c2ncccc12 [Example 3] |  |  | 
22 | 0.0042 | 0.205 | CCc1ccccc1N1CCS/C1=N\C(=O)c1c[nH]c2ncccc12 [Example 4] |  |  | 
23 | 0.00059 | 0.0013 | O=C(/N=C1\SCCN1c1ccccc1O)c1c[nH]c2ncccc12 [Example 6] |  |  | 
24 | 0.0016 | 0.0392 | O=C(/N=C1\SCCN1c1cccc(O)c1)c1c[nH]c2ncccc12 [Example 10] |  |  | 
25 | 0.00044 | 0.045 | O=C(/N=C1\SCC(CO)N1c1ccccc1)c1c[nH]c2ncccc12 (stereo not shown) [Example 13, (Z)—N-(4-(hydroxymethyl)-3-phenylthiazolidin-2-ylidene)-1H-pyrrolo[2,3-b]pyridine-3-carboxamide] |  |  | 
26 | 0.21 | 1.72 | CC(O)CN1CCS/C1=N\C(=O)c1c[nH]c2ncccc12 (stereo not shown) [Example 19, (Z)—N-(3-(2-hydroxypropyl)thiazolidin-2-ylidene)-1H-pyrrolo[2,3-b]pyridine-3-carboxamide] |  |  | 
27 | 0.0025 | 0.077 | O=C(/N=C1\SCCCN1Cc1ccccc1)c1c[nH]c2ncccc12 [Example 25] |  |  | 
28 | 0.0016 | 0.109 | O=C(/N=C1\SCCCN1c1ccccc1Cl)c1c[nH]c2ncccc12 [Example 28] |  |  | 
29 | 0.0039 | 0.392 | O=C(/N=C1\SCC(CO)CN1c1ccccc1)c1c[nH]c2ncccc12 (stereo not shown) [Example 35, (Z)—N-(5-(hydroxymethyl)-3-phenyl-1,3-thiazinan-2-ylidene)-1H-pyrrolo[2,3-b]pyridine-3-carboxamide] |  |  | 
